From patent US12114689B2 (NICOVENTURES TRADING LIMITED, priority 2018, dated 2024)

Key:
[1] = cited from earlier work
[2] = binding energy with the cyclodextrin host; settings: such as (2-Hydroxypropyl)-β-cyclodextrin
Description: The flavor components should be added last; this is due to the generally higher binding energy (vs. nicotine) with the cyclodextrin host. […] For menthol example, the approximate binding energies are −4.13 Kcal·mol^−1 (nicotine) and −5.06 Kcal·mol^−1 (menthol). […] Microfiltration may then be performed, in this case, to remove any excess menthol which has not formed a complex with cyclodextrin.

## 2-hydroxy-propyl-β-cyclodextrin [2-hydroxy-propyl-O-cyclodextrin]
[1]
  solubility in water compared to base cyclodextrins such as β-cyclodextrin: increased solubility in water

## CN1CCC[C@H]1c1cccnc1 (stereo in doubt) [Nicotine, 3-(1-methylpyrrolidin-2-yl) pyridine]
[2]
  approximate binding energy with the cyclodextrin host: ~-4.13 kcal/mol

## CC1CCC(C(C)C)C(O)C1 (stereo not drawn) [menthol]
[2]
  approximate binding energy with the cyclodextrin host: ~-5.06 kcal/mol
